Laboratory results as given in patent US7183061B2, “Method of expressing Heliothis ecdysone receptor fusion protein” (Syngenta Limited, priority 1996, dated 2007).

How the values were obtained:
Spodoptera exigua = conditions: compared with Heliothis; cited from earlier work
[1] = target: chimeric glucocorticoid VP16/Heliothis ecdysone receptor (UniProt O18473+P04150, DEL153-392/E478D/INS403[…]/INS405[…]/M398P/P396A/P400T/P406S/R399P/S397A/Y393A); assay: Maize protoplast GUS reporter assay with pMF6GRVP16HEcR and p221.9GRE6; format: cell-based, Heliothis virescens; set-up: expressed in transfected cells; host or cells: maize protoplasts (A10); stably transformed tobacco plants, pES3/pES4 (A11)
Sequence of chimeric glucocorticoid VP16/Heliothis ecdysone receptor (P04150+O18473 fused with the stated changes): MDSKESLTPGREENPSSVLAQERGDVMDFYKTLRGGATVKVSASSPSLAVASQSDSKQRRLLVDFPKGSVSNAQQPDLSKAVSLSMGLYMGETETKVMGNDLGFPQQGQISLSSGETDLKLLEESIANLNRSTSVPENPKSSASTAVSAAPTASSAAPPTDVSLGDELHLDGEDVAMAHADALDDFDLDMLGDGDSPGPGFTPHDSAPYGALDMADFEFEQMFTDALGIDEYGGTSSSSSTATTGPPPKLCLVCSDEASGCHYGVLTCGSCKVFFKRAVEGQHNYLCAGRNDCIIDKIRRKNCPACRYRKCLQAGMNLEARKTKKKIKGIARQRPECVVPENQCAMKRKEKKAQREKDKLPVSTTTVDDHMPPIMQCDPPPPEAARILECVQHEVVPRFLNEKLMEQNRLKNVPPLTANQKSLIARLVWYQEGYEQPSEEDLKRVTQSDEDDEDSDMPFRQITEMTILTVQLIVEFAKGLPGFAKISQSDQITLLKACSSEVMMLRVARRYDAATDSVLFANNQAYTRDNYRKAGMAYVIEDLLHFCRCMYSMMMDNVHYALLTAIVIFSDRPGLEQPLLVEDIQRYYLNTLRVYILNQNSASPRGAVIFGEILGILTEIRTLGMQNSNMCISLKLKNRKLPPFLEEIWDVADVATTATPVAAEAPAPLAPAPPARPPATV
Protocol: Protoplasts were isolated from a maize suspension culture derived from BE70×A188 embryogenic callus material, which was maintained by subculturing twice weekly in MS0.5mod. (MS medium supplemented with 3% sucrose, 690 mg/l proline, 1 g/l myo-inositol, 0.2 g/l casein acid hydrolysate, 0.5 mg/l 2,4-D, pH 5.6). Cells from suspensions two days post subculture were digested in enzyme mixture (2.0% Cellulase RS, 0.2% Pectolyase Y23, 0.5 M Mannitol, 5 mM CaCl2.2H2O, 0.5% MES, pH 5.6, ˜660 mmol/kg) using ˜10 ml/g cells, incubating at 25° C., dim light, rotating gently for ˜2 hours. The digestion mixture was sieved sequentially through 250 μm and 38 μm sieves, and the filtrate centrifuged at 700 rpm for 3.5 minutes, discarding the supernatant. The protoplasts were resuspended in wash buffer (0.358 M KCl, 1.0 mM NH4NO3, 5.0 mM CaCl2.2H2O, 0.5 mM KH2PO4, pH 4.8, ˜670 mmol/kg) and pelleted as before. This washing step was repeated. The pellet was resuspended in wash buffer and the protoplasts were counted. Transformation was achieved using a Polyethylene glycol method based on Negrutiu et al. Protoplasts were resuspended at 2×10^6/ml in MaMg medium (0.4 M Mannitol, 15 mM MgCl2, 0.1% MES, pH 5.6, ˜450 mmol/kg) aliquotting 0.5 ml/treatment (i.e. 1×10^6 protoplasts/treatment). […] Protein concentrations of tissue homogenates were determined by the Bio-Rad protein assay (Bradford, 1976). […]

**Q.** Which results are given for `CCc1ccc(C(=O)NN(C(=O)c2cc(C)cc(C)c2)C(C)(C)C)cc1` [RH5992, 3,5-dimethylbenzoic acid 1-1(1,1-dimethylethyl)-2(4-ethylbenzoyl)hydrazide]?
**A.** sensitivity of species (Spodoptera exigua): more sensitive to RH5992 than Heliothis; GUS levels relative to positive control (p35SCaMVGUS) ([1]; maize protoplasts (FIG. 39)): comparable to those observed with the positive control; levels of expression relative to pMF6GRHEcR ([1]; maize protoplasts, 100 μM): enhanced levels of expression
